Test results from PubChem BioAssay AID316 (DTP/NCI, 2004).
Values joined by “and” are separate entries in the source; they are usually repeats but may differ in a detail not shown here. Equal entries are not always repeated. Toxic doses and inconclusive results are not listed. The calls were made as follows: active = survival T/C of 150% or more; inactive = T/C below 125% in these data.

Tested on: P1534 leukemia ip, CD2F1 mice, survival T/C
Test: NCI In Vivo Anticancer Drug Screen. Data for tumor model P1534 Leukemia (intraperitoneal) in CD2F1 (CDF1) mice
Conditions: endpoint: mean survival time, higher = longer survival
Procedure: The antitumor activity of compounds was measured in mice bearing transplantable tumors. Survival or tumor size were measured and the results are expressed as the measurement made in the treated group (T) divided by the measurement made in the vehicle treated control group (C). The tumor model used in this assay is P1534 Leukemia (intraperitoneal) in CD2F1 (CDF1) mice

[1] = dose: 8.0 mg/kg/injection, schedule: Q01DX010 (ip), vehicle: saline
[2] = dose: 3.13 mg/kg/injection, schedule: Q01DX010 (ip), vehicle: saline
[3] = dose: 6.25 mg/kg/injection, schedule: Q01DX010 (ip), vehicle: saline
[4] = dose: 12.5 mg/kg/injection, schedule: Q01DX010 (ip), vehicle: saline
[5] = dose: 25.0 mg/kg/injection, schedule: Q01DX010 (ip), vehicle: saline
[6] = dose: 62.5 mg/kg/injection, schedule: Q01DX010 (ip), vehicle: saline
[7] = dose: 125.0 mg/kg/injection, schedule: Q01DX010 (ip), vehicle: saline
[8] = dose: 250.0 mg/kg/injection, schedule: Q01DX010 (ip), vehicle: saline
[9] = dose: 15.6 mg/kg/injection, schedule: Q01DX010 (ip), vehicle: saline
[10] = dose: 31.3 mg/kg/injection, schedule: Q01DX010 (ip), vehicle: saline
[11] = dose: 150.0 mg/kg/injection, schedule: Q01DX010 (ip), vehicle: water
[12] = dose: 50.0 mg/kg/injection, schedule: Q01DX010 (ip), vehicle: saline
[13] = dose: 100.0 mg/kg/injection, schedule: Q01DX010 (ip), vehicle: saline
[14] = dose: 200.0 mg/kg/injection, schedule: Q01DX010 (ip), vehicle: saline

Measured: T/C

O=C(Nc1ccc(C2=NCCCN2)cc1)c1ccc(C(=O)Nc2ccc(C3=NCCCN3)cc2)cc1
active: [1] 150 % of control
inactive: dose: 1.0 mg/kg/injection, schedule: Q01DX010 (ip), vehicle: saline 109 % of control | dose: 2.0 mg/kg/injection, schedule: Q01DX010 (ip), vehicle: saline 113 % of control and 118 % of control

CCCNc1ncnc2c1cnn2C
inactive: [2] 100 % of control | [3] 103 % of control and 100 % of control | [4] 103 % of control and 107 % of control | [5] 107 % of control and 100 % of control

CC(=O)NC1=C(N2CC2)C(=O)C(NC(C)=O)=C(N2CC2)C1=O
inactive: dose: 31.3 micrograms/kg/injection, schedule: Q01DX010 (ip), vehicle: saline 107 % of control | dose: 62.5 micrograms/kg/injection, schedule: Q01DX010 (ip), vehicle: saline 110 % of control

O=C(NO)c1ccc([N+](=O)[O-])cc1
inactive: dose: 270.0 mg/kg/injection, schedule: Q01DX010 (ip), vehicle: water 108 % of control | dose: 400.0 mg/kg/injection, schedule: Q01DX010 (ip), vehicle: water 112 % of control

CC(=O)N(C)C
inactive: [6] 94 % of control and 100 % of control | [7] 105 % of control and 100 % of control | [8] 105 % of control and 100 % of control | dose: 500.0 mg/kg/injection, schedule: Q01DX010 (ip), vehicle: saline 100 % of control

N=[N+]=CC(=O)OCC(N)C(=O)O (configuration not stated)
active: dose: 6.25 mg/kg/injection, schedule: Q01DX010 (ip), vehicle: other 155 % of control
inactive: dose: 15.5 mg/kg/injection, schedule: Q01DX010 (ip), vehicle: saline 119 % of control

CN(/N=N/N(C)c1ccccc1)c1ccccc1
inactive: [9] 115 % of control | [10] 103 % of control | [6] 111 % of control | [7] 100 % of control

CCC12CC(C(=O)OC)=C3Nc4cc(OC)ccc4C34CCN(CC3OC31)C42 (configuration not stated)
inactive: dose: 3.75 mg/kg/injection, schedule: Q01DX010 (ip), vehicle: saline 96 % of control | dose: 7.5 mg/kg/injection, schedule: Q01DX010 (ip), vehicle: saline 100 % of control | dose: 15.0 mg/kg/injection, schedule: Q01DX010 (ip), vehicle: saline 90 % of control | dose: 30.0 mg/kg/injection, schedule: Q01DX010 (ip), vehicle: saline 96 % of control

COc1cc2c3c(c4ccc(O)cc4c2cc1OC)[C@@H](O)[C@@H]1CCCN1C3
active: dose: 20.0 mg/kg/injection, schedule: Q01DX009 (ip), vehicle: water 163 % of control
inactive: dose: 2.5 mg/kg/injection, schedule: Q01DX009 (ip), vehicle: water 98 % of control | dose: 5.0 mg/kg/injection, schedule: Q01DX009 (ip), vehicle: water 113 % of control | dose: 15.0 mg/kg/injection, schedule: Q01DX009 (ip), vehicle: water 110 % of control | dose: 20.0 mg/kg/injection, schedule: Q01DX010 (ip), vehicle: water 113 % of control | dose: 30.0 mg/kg/injection, schedule: Q01DX010 (ip), vehicle: water 86 % of control

CC(=O)O[C@]1(C(C)=O)CC[C@H]2[C@@H]3C[C@H](C)C4=CC(=O)C=C[C@]4(C)[C@@]3(F)[C@@H](O)C[C@@]21C
inactive: dose: 12.5 mg/kg/injection, schedule: Q01DX010 (sc), vehicle: steriod suspending solution 103 % of control | dose: 25.0 mg/kg/injection, schedule: Q01DX010 (sc), vehicle: steriod suspending solution 92 % of control

C1CCNC1
inactive: dose: 1.56 mg/kg/injection, schedule: Q01DX010 (ip), vehicle: saline 113 % of control | [2] 103 % of control | [3] 100 % of control | [4] 103 % of control and 96 % of control | [5] 86 % of control

CC(=O)Nc1ccc(/C=N/Nc2ccc([N+](=O)[O-])cn2)cc1
inactive: [6] 100 % of control | [7] 100 % of control | [8] 96 % of control

CC1CCC2(NC1)OC1CC3C4CCC5CC(OC6OC(CO)C(OC7OC(CO)C(O)C(OC8OCC(O)C(O)C8O)C7OC7OC(CO)C(O)C(O)C7O)C(O)C6O)CCC5(C)C4CCC3(C)C1C2C (configuration not stated)
inactive: dose: 5.0 mg/kg/injection, schedule: Q01DX010 (sc), vehicle: steriod suspending solution 100 % of control | dose: 10.0 mg/kg/injection, schedule: Q01DX010 (sc), vehicle: steriod suspending solution 100 % of control

CCNc1nncs1
inactive: [1] 100 % of control | dose: 16.0 mg/kg/injection, schedule: Q01DX010 (ip), vehicle: saline 96 % of control

CC1=NN(c2ccccc2)C(=O)C1
inactive: [11] 94 % of control | dose: 300.0 mg/kg/injection, schedule: Q01DX010 (ip), vehicle: water 91 % of control

COc1cc2c(c(OC)c1OC)-c1ccc(OC)c(=O)cc1[C@@H](NC(C)=O)CC2
active: dose: 0.12 mg/kg/injection, schedule: Q01DX010 (ip), vehicle: saline 188 % of control | dose: 0.18 mg/kg/injection, schedule: Q01DX010 (ip), vehicle: saline 213 % of control | dose: 0.2 mg/kg/injection, schedule: Q01DX015 (ip), vehicle: saline 161 % of control | dose: 0.2 mg/kg/injection, schedule: Q02DX008 (ip), vehicle: saline 174 % of control | dose: 0.27 mg/kg/injection, schedule: Q01DX010 (ip), vehicle: saline 253 % of control | dose: 0.3 mg/kg/injection, schedule: Q01DX015 (ip), vehicle: saline 212 % of control | dose: 0.3 mg/kg/injection, schedule: Q02DX008 (ip), vehicle: saline 159 % of control | dose: 0.45 mg/kg/injection, schedule: Q01DX015 (ip), vehicle: saline 257 % of control | dose: 0.45 mg/kg/injection, schedule: Q02DX008 (ip), vehicle: saline 261 % of control | dose: 0.67 mg/kg/injection, schedule: Q02DX008 (ip), vehicle: saline 318 % of control | dose: 0.9 mg/kg/injection, schedule: Q## X004 (ip), vehicle: saline 348 % of control | dose: 1.0 mg/kg/injection, schedule: Q02DX008 (ip), vehicle: saline 304 % of control | dose: 1.0 mg/kg/injection, schedule: Q## X032 (ip), vehicle: saline 242 % of control | dose: 1.1 mg/kg/injection, schedule: Q01DX001 (ip), vehicle: saline 255 % of control | dose: 1.3 mg/kg/injection, schedule: Q## X004 (ip), vehicle: saline 328 % of control | dose: 1.6 mg/kg/injection, schedule: Q## X032 (ip), vehicle: saline 352 % of control | dose: 1.7 mg/kg/injection, schedule: Q01DX001 (ip), vehicle: saline 208 % of control | dose: 2.4 mg/kg/injection, schedule: Q## X032 (ip), vehicle: saline 240 % of control | dose: 2.5 mg/kg/injection, schedule: Q01DX001 (ip), vehicle: saline 241 % of control
inactive: dose: 0.04 mg/kg/injection, schedule: Q01DX010 (ip), vehicle: saline 100 % of control | dose: 0.05 mg/kg/injection, schedule: Q01DX010 (ip), vehicle: saline 123 % of control | dose: 0.06 mg/kg/injection, schedule: Q01DX010 (ip), vehicle: saline 100 % of control

Cc1cc(C)n(C(N)=O)n1
inactive: [11] 96 % of control | dose: 200.0 mg/kg/injection, schedule: Q01DX010 (ip), vehicle: water 111 % of control

CC[C@H](CC[C@@H](C)[C@H]1CC[C@H]2[C@@H]3CC=C4C[C@@H](O)CC[C@]4(C)[C@H]3CC[C@]12C)C(C)C
inactive: dose: 50.0 mg/kg/injection, schedule: Q01DX010 (ip), vehicle: other 100 % of control | dose: 100.0 mg/kg/injection, schedule: Q01DX010 (ip), vehicle: other 100 % of control | dose: 200.0 mg/kg/injection, schedule: Q01DX010 (ip), vehicle: other 106 % of control | dose: 300.0 mg/kg/injection, schedule: Q01DX010 (ip), vehicle: other 108 % of control

Clc1[nH]nc2ccccc12
inactive: dose: 7.8 mg/kg/injection, schedule: Q01DX010 (ip), vehicle: saline 100 % of control | [9] 96 % of control | [10] 96 % of control | [6] 107 % of control and 100 % of control | [7] 92 % of control

COC(=O)C1=COC(C)C2CN3CCc4c([nH]c5cc(OC)c(OC)cc45)C3CC12 (configuration not stated)
inactive: [12] 96 % of control | [13] 100 % of control | [14] 100 % of control

COc1ccc2c(=O)cc(-c3ccccc3)n(C)c2c1
inactive: [12] 103 % of control | [13] 103 % of control | [14] 103 % of control | dose: 400.0 mg/kg/injection, schedule: Q01DX010 (ip), vehicle: saline 96 % of control
